pIC50: −log10 of the molar value.
Tested on: 633275-114-R-J1-PDC complex spheroids, viability
Test: Anticancer human tumor 633275-114-R-J1-PDC patient-derived endometrial adenocarcinoma cell line growth inhibition [GQUAD]
Details: for pIC50: curve of first compound; for viability, T/C: stronger effect = lower value
Method in brief: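 Tumor cells were grown as complex spheroids with HUVEC endothelial cells and mesenchymal stem cells as stroma. G-quadruplex stabilizers were combined with targeted agents over half-log dilutions from near the clinical Cmax, or from 10 microM.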

[1] = second compound 0.0316 µM, first compound 0.0316 µM
[2] = second compound 0.0316 µM, first compound 0.1 µM
[3] = second compound 0.0316 µM, first compound 0.316 µM
[4] = second compound 0.0316 µM, first compound 1 µM
[5] = second compound 0.0316 µM, first compound 3.16 µM
[6] = second compound 0.0316 µM, first compound 10 µM
[7] = second compound 0.1 µM, first compound 0.0316 µM
[8] = second compound 0.1 µM, first compound 0.1 µM
[9] = second compound 0.1 µM, first compound 0.316 µM
[10] = second compound 0.1 µM, first compound 1 µM
[11] = second compound 0.1 µM, first compound 3.16 µM
[12] = second compound 0.1 µM, first compound 10 µM
[13] = second compound 0.316 µM, first compound 0.0316 µM
[14] = second compound 0.316 µM, first compound 0.1 µM
[15] = second compound 0.316 µM, first compound 0.316 µM
[16] = second compound 0.316 µM, first compound 1 µM
[17] = second compound 0.316 µM, first compound 3.16 µM
[18] = second compound 0.316 µM, first compound 10 µM
[19] = second compound 1 µM, first compound 0.0316 µM
[20] = second compound 1 µM, first compound 0.1 µM
[21] = second compound 1 µM, first compound 0.316 µM
[22] = second compound 1 µM, first compound 1 µM
[23] = second compound 1 µM, first compound 3.16 µM
[24] = second compound 1 µM, first compound 10 µM
[25] = second compound 3.16 µM, first compound 0.0316 µM
[26] = second compound 3.16 µM, first compound 0.1 µM
[27] = second compound 3.16 µM, first compound 0.316 µM
[28] = second compound 3.16 µM, first compound 1 µM
[29] = second compound 3.16 µM, first compound 3.16 µM
[30] = second compound 3.16 µM, first compound 10 µM
[31] = second compound 10 µM, first compound 0.0316 µM
[32] = second compound 10 µM, first compound 0.1 µM
[33] = second compound 10 µM, first compound 0.316 µM
[34] = second compound 10 µM, first compound 1 µM
[35] = second compound 10 µM, first compound 3.16 µM
[36] = second compound 10 µM, first compound 10 µM
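Note: spheroids exposed to the agents for seven days.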
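Throughout, for viability, T/C: percent of DMSO vehicle control viability which is 100%.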

C=CCn1c(=O)c2cnc(Nc3ccc(N4CCN(C)CC4)cc3)nc2n1-c1cccc(C(C)(C)O)n1 + Cc1[nH]c2ccc(F)cc2c1-c1nc2c3cccnc3c3ncccc3c2[nH]1
pIC50 (second compound 0.0316 µM): 6.19
pIC50 (second compound 0.1 µM): 6.14
pIC50 (second compound 0.316 µM): 6.21
pIC50 (second compound 1 µM): 6.24
pIC50 (second compound 3.16 µM): 6.44
pIC50 (second compound 10 µM): 6.78
viability, T/C [1]: 105%
viability, T/C [2]: 100%
viability, T/C [3]: 73.3%
viability, T/C [4]: 35.1%
viability, T/C [5]: 22.2%
viability, T/C [6]: 16.2%
viability, T/C [7]: 103%
viability, T/C [8]: 97.9%
viability, T/C [9]: 73.9%
viability, T/C [10]: 40.4%
viability, T/C [11]: 22.6%
viability, T/C [12]: 17.4%
viability, T/C [13]: 101%
viability, T/C [14]: 93.9%
viability, T/C [15]: 67.9%
viability, T/C [16]: 37.2%
viability, T/C [17]: 21.8%
viability, T/C [18]: 16%
viability, T/C [19]: 87.1%
viability, T/C [20]: 97.8%
viability, T/C [21]: 67.3%
viability, T/C [22]: 33.3%
viability, T/C [23]: 19.3%
viability, T/C [24]: 15.6%
viability, T/C [25]: 69.3%
viability, T/C [26]: 69.4%
viability, T/C [27]: 51.5%
viability, T/C [28]: 29.8%
viability, T/C [29]: 18.6%
viability, T/C [30]: 14.8%
viability, T/C [31]: 58.2%
viability, T/C [32]: 55%
viability, T/C [33]: 43.4%
viability, T/C [34]: 26.2%
viability, T/C [35]: 17.9%
viability, T/C [36]: 16.6%

CC(=O)O[C@H]1C(=O)[C@@]2(C)[C@H]([C@H](OC(=O)c3ccccc3)[C@]3(O)C[C@H](OC(=O)[C@H](O)[C@@H](NC(=O)c4ccccc4)c4ccccc4)C(C)=C1C3(C)C)[C@]1(OC(C)=O)CO[C@@H]1C[C@@H]2O + Cc1[nH]c2ccc(F)cc2c1-c1nc2c3cccnc3c3ncccc3c2[nH]1
pIC50 (second compound 0.0316 µM): 7.48
pIC50 (second compound 0.1 µM): > 7.50
pIC50 (second compound 0.316 µM): > 7.50
pIC50 (second compound 1 µM): > 7.50
pIC50 (second compound 3.16 µM): > 7.50
pIC50 (second compound 10 µM): > 7.50
viability, T/C [1]: 50.9%
viability, T/C [2]: 25.6%
viability, T/C [3]: 20.8%
viability, T/C [4]: 19.7%
viability, T/C [5]: 20.6%
viability, T/C [6]: 18.9%
viability, T/C [7]: 45.3%
viability, T/C [8]: 25.8%
viability, T/C [9]: 20.2%
viability, T/C [10]: 18.4%
viability, T/C [11]: 19.1%
viability, T/C [12]: 18.9%
viability, T/C [13]: 47.8%
viability, T/C [14]: 22.1%
viability, T/C [15]: 19.9%
viability, T/C [16]: 19.5%
viability, T/C [17]: 19.4%
viability, T/C [18]: 19.1%
viability, T/C [19]: 41%
viability, T/C [20]: 21.3%
viability, T/C [21]: 19.8%
viability, T/C [22]: 17.7%
viability, T/C [23]: 18.2%
viability, T/C [24]: 17.2%
viability, T/C [25]: 38.2%
viability, T/C [26]: 17.7%
viability, T/C [27]: 16.3%
viability, T/C [28]: 16.5%
viability, T/C [29]: 19.4%
viability, T/C [30]: 17.7%
viability, T/C [31]: 36.8%
viability, T/C [32]: 18.8%
viability, T/C [33]: 17.5%
viability, T/C [34]: 18.8%
viability, T/C [35]: 18.4%
viability, T/C [36]: 17.2%

COc1ncnc(C2CC2)c1-c1ncc2cnn(Cc3ccc(-c4nc(C(F)(F)F)cn4C(C)C)cc3)c2n1 + Cc1[nH]c2ccc(F)cc2c1-c1nc2c3cccnc3c3ncccc3c2[nH]1
pIC50 (second compound 0.0316 µM): < 5.00
pIC50 (second compound 0.1 µM): < 5.00
pIC50 (second compound 0.316 µM): < 5.00
pIC50 (second compound 1 µM): < 5.00
pIC50 (second compound 3.16 µM): < 5.00
pIC50 (second compound 10 µM): < 5.00
viability, T/C [1]: 95.6%
viability, T/C [2]: 91.5%
viability, T/C [3]: 100%
viability, T/C [4]: 93.2%
viability, T/C [5]: 91.4%
viability, T/C [6]: 89.8%
viability, T/C [7]: 98.2%
viability, T/C [8]: 102%
viability, T/C [9]: 89.5%
viability, T/C [10]: 96.7%
viability, T/C [11]: 92.1%
viability, T/C [12]: 87.7%
viability, T/C [13]: 93.4%
viability, T/C [14]: 87.9%
viability, T/C [15]: 87.3%
viability, T/C [16]: 82.3%
viability, T/C [17]: 99.7%
viability, T/C [18]: 91.8%
viability, T/C [19]: 86.7%
viability, T/C [20]: 90%
viability, T/C [21]: 93.2%
viability, T/C [22]: 81.3%
viability, T/C [23]: 93.5%
viability, T/C [24]: 87.1%
viability, T/C [25]: 70%
viability, T/C [26]: 78.4%
viability, T/C [27]: 64.1%
viability, T/C [28]: 62.7%
viability, T/C [29]: 73.2%
viability, T/C [30]: 67%
viability, T/C [31]: 59.8%
viability, T/C [32]: 63.1%
viability, T/C [33]: 56%
viability, T/C [34]: 60.5%
viability, T/C [35]: 62.3%
viability, T/C [36]: 60.3%

From PubChem BioAssay AID2060505 (Molecular Pharmacology Branch, DTP, NCI, 2025)
